Assays:
[1] = biological target: Receptor tyrosine-protein kinase erbB-2 (Homo sapiens, UniProt P04626); assay: biochemical; assay type: cell-based, Insect cells; conditions: insect cells;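 also: inhibition of HER2 kinase enzyme activity, measured with Poly(Glu:Tyr) as the phosphorylation substrate; in other assays of this panel Not Active means under 50% inhibition at 10 µM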
[2] = DRUGMATRIX: GABAA, Flunitrazepam, Central radioligand binding (ligand: [3H] Flunitrazepam); assay type: cell membranes, Rattus norvegicus, Wistar, Brain, Membrane; conditions: Not Active = under 50% inhibition at 10 µM
[3] = biological target: Epidermal growth factor receptor (Homo sapiens, UniProt P00533); assay: DRUGMATRIX: Protein Tyrosine Kinase, EGF Receptor enzyme inhibition (substrate: Poly(Glu:Tyr)); assay type: cell-based, Insect cells; conditions: insect cells, Not Active = under 50% inhibition at 10 µM
[4] = biological target: Insulin receptor (Rattus norvegicus, UniProt P15127); assay type: cell membranes, Wistar, Liver, Membrane; also: in other assays of this panel Not Active means under 50% inhibition at 10 µM
[5] = biological target: Platelet-activating factor receptor (Homo sapiens, UniProt P25105); assay type: tissue-based; also: in other assays of this panel Not Active means under 50% inhibition at 10 µM
[6] = biological target: T1, Nitric oxide synthase, inducible (Mus musculus, UniProt P29477); set-up: species or system Escherichia coli;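 also: inhibition of iNOS enzyme activity measured with L-arginine as substrate; in other assays of this panel Not Active means under 50% inhibition at 10 µM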
T1 sequence (P29477 whole entry): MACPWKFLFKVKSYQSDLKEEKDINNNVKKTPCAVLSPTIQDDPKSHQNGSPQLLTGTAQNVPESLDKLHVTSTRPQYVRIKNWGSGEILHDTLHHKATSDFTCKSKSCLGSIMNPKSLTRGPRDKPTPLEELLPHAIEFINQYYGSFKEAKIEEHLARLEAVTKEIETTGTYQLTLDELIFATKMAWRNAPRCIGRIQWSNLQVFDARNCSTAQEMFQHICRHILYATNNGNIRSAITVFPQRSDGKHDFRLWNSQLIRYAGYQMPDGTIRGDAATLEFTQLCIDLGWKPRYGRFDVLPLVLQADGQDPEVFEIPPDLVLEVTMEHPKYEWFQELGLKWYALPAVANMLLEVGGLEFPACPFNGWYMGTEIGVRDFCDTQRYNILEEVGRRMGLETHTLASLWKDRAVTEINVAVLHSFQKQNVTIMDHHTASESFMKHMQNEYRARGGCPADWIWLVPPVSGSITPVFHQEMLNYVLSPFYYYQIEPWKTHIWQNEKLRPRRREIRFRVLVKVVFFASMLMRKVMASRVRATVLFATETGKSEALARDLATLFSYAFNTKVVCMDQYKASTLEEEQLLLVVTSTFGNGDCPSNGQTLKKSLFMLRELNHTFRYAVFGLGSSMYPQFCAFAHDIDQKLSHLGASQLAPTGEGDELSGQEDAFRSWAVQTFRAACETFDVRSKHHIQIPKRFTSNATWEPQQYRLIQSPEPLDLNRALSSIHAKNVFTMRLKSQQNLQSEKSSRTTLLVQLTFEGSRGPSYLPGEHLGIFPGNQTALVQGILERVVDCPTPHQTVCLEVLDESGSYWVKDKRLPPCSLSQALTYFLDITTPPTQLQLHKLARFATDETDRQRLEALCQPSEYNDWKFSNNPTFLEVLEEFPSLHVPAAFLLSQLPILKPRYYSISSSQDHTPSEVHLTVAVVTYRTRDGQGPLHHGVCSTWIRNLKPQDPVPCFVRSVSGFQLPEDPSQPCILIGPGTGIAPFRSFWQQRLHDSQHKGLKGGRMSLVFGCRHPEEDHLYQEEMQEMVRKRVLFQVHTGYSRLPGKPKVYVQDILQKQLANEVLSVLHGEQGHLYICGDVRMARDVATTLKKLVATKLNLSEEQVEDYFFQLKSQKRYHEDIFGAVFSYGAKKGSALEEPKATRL

[7] = biological target: T2, C-X-C chemokine receptor type 2 (Homo sapiens, UniProt P25025); assay type: cell membranes, Membrane; conditions: cho-k1; also: in other assays of this panel Not Active means under 50% inhibition at 10 µM
T2 sequence (P25025 whole entry): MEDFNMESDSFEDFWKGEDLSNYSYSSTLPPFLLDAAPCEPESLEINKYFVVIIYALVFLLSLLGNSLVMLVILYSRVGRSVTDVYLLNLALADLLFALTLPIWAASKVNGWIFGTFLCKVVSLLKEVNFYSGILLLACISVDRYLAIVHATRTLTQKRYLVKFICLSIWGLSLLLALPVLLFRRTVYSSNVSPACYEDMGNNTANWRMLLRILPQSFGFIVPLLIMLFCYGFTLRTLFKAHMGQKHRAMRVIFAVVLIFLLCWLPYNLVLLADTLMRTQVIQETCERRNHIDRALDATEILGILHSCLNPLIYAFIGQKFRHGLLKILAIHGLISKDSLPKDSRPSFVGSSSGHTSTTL

[8] = biological target: Estrogen receptor beta (Homo sapiens, UniProt Q92731); conditions: sf9; also: in other assays of this panel Not Active means under 50% inhibition at 10 µM
Sequence of Estrogen receptor beta (Q92731 whole entry): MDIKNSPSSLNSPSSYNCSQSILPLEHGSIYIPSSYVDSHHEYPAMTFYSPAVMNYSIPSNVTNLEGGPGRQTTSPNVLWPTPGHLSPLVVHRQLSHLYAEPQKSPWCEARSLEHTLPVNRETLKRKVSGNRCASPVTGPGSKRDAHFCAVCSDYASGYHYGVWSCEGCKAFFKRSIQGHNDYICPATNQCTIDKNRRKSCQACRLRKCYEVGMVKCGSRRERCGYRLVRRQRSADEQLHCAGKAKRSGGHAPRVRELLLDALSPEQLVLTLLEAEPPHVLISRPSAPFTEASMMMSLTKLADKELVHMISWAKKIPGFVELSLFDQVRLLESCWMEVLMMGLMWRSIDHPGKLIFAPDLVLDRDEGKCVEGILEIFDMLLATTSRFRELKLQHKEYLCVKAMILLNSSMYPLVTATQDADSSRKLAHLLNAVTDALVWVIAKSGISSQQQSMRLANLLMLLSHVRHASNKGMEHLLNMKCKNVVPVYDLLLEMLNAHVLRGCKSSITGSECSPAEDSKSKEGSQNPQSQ

Sequence of Receptor tyrosine-protein kinase erbB-2 (P04626 whole entry): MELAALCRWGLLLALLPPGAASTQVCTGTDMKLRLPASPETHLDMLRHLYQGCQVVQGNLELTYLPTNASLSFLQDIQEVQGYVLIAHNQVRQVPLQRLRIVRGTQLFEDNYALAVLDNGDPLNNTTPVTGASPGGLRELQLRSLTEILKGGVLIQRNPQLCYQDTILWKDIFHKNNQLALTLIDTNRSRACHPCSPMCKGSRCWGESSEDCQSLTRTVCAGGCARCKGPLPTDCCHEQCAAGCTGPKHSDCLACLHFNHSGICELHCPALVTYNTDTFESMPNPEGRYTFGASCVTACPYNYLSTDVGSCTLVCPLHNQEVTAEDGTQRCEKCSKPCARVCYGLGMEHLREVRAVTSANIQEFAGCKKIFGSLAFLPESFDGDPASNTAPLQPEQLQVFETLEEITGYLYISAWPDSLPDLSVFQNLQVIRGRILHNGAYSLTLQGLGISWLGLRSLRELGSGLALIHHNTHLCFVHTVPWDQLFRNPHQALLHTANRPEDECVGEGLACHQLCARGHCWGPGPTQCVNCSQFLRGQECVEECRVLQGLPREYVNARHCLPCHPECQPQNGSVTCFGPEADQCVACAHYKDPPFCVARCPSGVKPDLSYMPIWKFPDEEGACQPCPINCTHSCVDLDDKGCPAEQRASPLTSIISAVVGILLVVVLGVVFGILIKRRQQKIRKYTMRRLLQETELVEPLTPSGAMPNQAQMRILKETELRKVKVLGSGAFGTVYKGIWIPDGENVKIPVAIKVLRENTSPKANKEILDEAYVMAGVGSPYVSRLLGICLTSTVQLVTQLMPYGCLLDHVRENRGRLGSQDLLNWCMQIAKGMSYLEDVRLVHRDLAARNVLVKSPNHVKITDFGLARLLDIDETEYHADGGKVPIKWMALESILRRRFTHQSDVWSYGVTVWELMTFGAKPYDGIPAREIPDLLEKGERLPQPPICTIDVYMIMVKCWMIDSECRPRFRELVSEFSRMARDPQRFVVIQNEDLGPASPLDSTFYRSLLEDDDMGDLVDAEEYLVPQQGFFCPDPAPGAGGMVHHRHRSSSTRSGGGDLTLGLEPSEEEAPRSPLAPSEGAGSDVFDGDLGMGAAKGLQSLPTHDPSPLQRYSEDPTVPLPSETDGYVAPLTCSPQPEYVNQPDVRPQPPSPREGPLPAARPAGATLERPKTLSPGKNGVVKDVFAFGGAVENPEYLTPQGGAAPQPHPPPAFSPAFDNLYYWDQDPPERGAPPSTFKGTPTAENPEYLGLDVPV
Sequence of Insulin receptor (P15127 27-759 limits assumed): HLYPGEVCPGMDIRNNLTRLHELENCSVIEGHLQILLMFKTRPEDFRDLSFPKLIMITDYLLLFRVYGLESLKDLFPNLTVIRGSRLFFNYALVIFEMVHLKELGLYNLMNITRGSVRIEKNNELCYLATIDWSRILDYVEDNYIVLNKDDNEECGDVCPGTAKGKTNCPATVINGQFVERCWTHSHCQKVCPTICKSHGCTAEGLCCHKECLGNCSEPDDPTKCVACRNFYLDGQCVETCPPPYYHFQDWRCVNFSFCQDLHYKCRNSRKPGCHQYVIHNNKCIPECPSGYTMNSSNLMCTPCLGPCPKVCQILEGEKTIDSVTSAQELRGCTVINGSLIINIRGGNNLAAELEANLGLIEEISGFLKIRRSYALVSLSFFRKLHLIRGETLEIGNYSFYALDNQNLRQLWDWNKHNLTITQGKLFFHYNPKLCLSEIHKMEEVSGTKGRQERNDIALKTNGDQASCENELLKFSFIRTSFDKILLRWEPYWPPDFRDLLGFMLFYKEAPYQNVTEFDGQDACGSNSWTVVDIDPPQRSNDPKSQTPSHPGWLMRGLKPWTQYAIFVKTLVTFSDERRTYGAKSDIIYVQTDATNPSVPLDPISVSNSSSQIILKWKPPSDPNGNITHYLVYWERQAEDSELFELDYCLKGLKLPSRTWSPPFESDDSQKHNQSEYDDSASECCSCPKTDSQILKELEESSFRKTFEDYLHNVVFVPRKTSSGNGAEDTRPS
Sequence of Insulin receptor (P15127 764-1383 limits assumed): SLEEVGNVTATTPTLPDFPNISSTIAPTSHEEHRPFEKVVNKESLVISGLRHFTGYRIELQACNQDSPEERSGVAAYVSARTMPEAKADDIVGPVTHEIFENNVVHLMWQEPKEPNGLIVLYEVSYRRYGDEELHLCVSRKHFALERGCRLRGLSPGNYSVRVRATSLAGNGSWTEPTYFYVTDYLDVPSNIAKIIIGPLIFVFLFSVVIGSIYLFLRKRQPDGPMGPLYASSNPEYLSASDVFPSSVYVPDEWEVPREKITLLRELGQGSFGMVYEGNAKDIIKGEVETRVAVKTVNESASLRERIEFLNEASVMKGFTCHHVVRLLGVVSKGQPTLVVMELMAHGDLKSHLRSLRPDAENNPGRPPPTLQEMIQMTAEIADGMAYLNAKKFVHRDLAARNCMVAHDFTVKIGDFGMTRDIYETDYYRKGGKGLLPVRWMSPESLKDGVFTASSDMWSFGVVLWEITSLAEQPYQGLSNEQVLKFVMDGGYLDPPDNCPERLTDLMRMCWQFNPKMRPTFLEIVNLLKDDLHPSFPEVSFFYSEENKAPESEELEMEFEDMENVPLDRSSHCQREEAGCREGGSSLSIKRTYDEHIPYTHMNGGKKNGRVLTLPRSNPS
Sequence of Platelet-activating factor receptor (P25105 whole entry): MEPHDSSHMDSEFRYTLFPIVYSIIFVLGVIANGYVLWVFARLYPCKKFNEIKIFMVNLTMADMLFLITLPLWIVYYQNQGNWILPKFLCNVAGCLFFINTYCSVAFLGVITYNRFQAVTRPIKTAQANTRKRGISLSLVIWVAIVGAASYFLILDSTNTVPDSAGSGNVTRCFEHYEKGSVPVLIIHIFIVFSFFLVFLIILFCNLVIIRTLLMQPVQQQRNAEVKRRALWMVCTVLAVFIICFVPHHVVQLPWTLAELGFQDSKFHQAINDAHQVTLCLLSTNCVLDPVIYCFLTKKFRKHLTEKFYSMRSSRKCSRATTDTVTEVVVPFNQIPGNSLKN

C#C[C@]1(O)CC[C@H]2[C@@H]3CCc4cc(OC)ccc4[C@H]3CC[C@@]21C [MESTRANOL]
IC50 [1]: Not Active | IC50 [2]: Not Active | Ki [2]: Not Active | IC50 [3]: Not Active | IC50 [4]: Not Active | IC50 [5]: Not Active | IC50 [6]: Not Active | IC50 [7]: Not Active

Cc1ncc([N+](=O)[O-])n1CCO [METRONIDAZOLE]
IC50 [1]: Not Active | IC50 [2]: Not Active | Ki [2]: Not Active | IC50 [3]: Not Active | IC50 [4]: Not Active | IC50 [5]: Not Active | IC50 [6]: Not Active | IC50 [7]: Not Active

CC(C)(C(=O)c1cccnc1)c1cccnc1 [METYRAPONE]
IC50 [1]: Not Active | IC50 [2]: Not Active | Ki [2]: Not Active | IC50 [3]: Not Active | IC50 [4]: Not Active | IC50 [5]: Not Active | IC50 [6]: Not Active | IC50 [7]: Not Active

COc1ccc2cc([C@H](C)C(=O)O)ccc2c1 [NAPROXEN]
IC50 [1]: Not Active | IC50 [2]: Not Active | Ki [2]: Not Active | IC50 [3]: Not Active | IC50 [4]: Not Active | IC50 [5]: Not Active | IC50 [6]: Not Active | IC50 [7]: Not Active

COC(=O)C1=C(C)NC(C)=C(C(=O)OCC(C)C)C1c1ccccc1[N+](=O)[O-] (stereo unspecified) [NISOLDIPINE]
IC50 [1]: Not Active | IC50 [2]: Not Active | Ki [2]: Not Active | IC50 [3]: Not Active | IC50 [4]: Not Active | IC50 [5]: Not Active | IC50 [6]: Not Active | IC50 [7]: Not Active

O=C(C1CCCCC1)N1CC(=O)N2CCc3ccccc3C2C1 (stereo unspecified) [PRAZIQUANTEL]
IC50 [1]: Not Active | IC50 [2]: Not Active | Ki [2]: Not Active | IC50 [3]: Not Active | IC50 [4]: Not Active | IC50 [5]: Not Active | IC50 [6]: Not Active | IC50 [7]: Not Active

CCN(CC)CCOC(=O)c1ccc(N)cc1 [PROCAINE]
IC50 [1]: Not Active | IC50 [2]: Not Active | Ki [2]: Not Active | IC50 [3]: Not Active | IC50 [4]: Not Active | IC50 [5]: Not Active | IC50 [6]: Not Active | IC50 [7]: Not Active

CCCN(CCC)C(=O)C(CCC(=O)O)NC(=O)c1ccccc1 (stereo unspecified) [PROGLUMIDE]
IC50 [1]: Not Active | IC50 [2]: Not Active | Ki [2]: Not Active | IC50 [3]: Not Active | IC50 [4]: Not Active | IC50 [5]: Not Active | IC50 [6]: Not Active | IC50 [7]: Not Active

Cc1cc2cc3c(C)cc(=O)oc3c(C)c2o1 [TRIOXSALEN]
IC50 [1]: Not Active | IC50 [2]: Not Active | Ki [2]: Not Active | IC50 [3]: Not Active | IC50 [4]: Not Active | IC50 [5]: Not Active | IC50 [6]: Not Active | IC50 [7]: Not Active

CCCC(CCC)C(=O)O [VALPROIC ACID]
IC50 [1]: Not Active | IC50 [2]: Not Active | Ki [2]: Not Active | IC50 [3]: Not Active | IC50 [4]: Not Active | IC50 [5]: Not Active | IC50 [6]: Not Active | IC50 [7]: Not Active

CCC1=C[C@@H]2CN(C1)Cc1c([nH]c3ccccc13)[C@@](C(=O)OC)(c1cc3c(cc1OC)N(C)[C@H]1[C@@](O)(C(=O)OC)[C@H](OC(C)=O)[C@]4(CC)C=CCN5CC[C@]31[C@@H]54)C2 [VINORELBINE]
IC50 [1]: Not Active | IC50 [2]: Not Active | Ki [2]: Not Active | IC50 [3]: Not Active | IC50 [4]: Not Active | IC50 [5]: Not Active | IC50 [6]: Not Active | IC50 [7]: Not Active

CADMIUM DICHLORIDE
IC50 [2]: Not Active | Ki [2]: Not Active | IC50 ([3]; read-out: IC50): 0.486 µM | IC50 [4]: Not Active | Ki [4]: Not Active | IC50 [5]: Not Active | Ki [5]: Not Active | IC50 [6]: Not Active | Ki [6]: Not Active | IC50 [8]: Not Active | Ki [8]: Not Active | IC50 [7]: Not Active | Ki [7]: Not Active
